Test results as given in patent publication US9340577B2, “HLA binding motifs and peptides and their uses” (priority 1992, dated 2016).
pIC50: −log10 of the molar value. “And” between values parts separate entries of the source, which are not always exact repeats. Equal entries are not always repeated. Where two headings read alike, the source gives them in different places. No end group written: not given here.

Key:
A2.1 HLA molecules = A2.1 HLA molecules (Homo sapiens, UniProt P04439, D140Y/D185E/D98H/E176V/E277Q/G131W/G231S/I119V/I121R/I166T/I218V/L300P/L318F/N151K/N90K/P208A/P217A/Q86G/Q94H/R138H/R169H/T345S); assay type: binding; set-up: A*0201 / A2.1 Binding / A2 Bind. / A2 / A2.1 (binding capacity): scale not given here
DR1 (DRB1*0101) = DR1 (DRB1*0101) (Homo sapiens, UniProt P01903+P01911, A100R/D57E/F55L/F60I/F76Y/I96L/L162R/M171V/P40L/Q125E/R42F/V115G/Y59C); experiment: biochemical; assay type: binding

Compound | pIC50 (DR1 (DRB1*0101)) | other results
GLWIRTPPV [listing 1 of 2 here] |  | A2.1 relative binding (ratio of binding of test peptide relative to standard peptide) (A2.1 HLA molecules): 0.36
GLCAVFADV |  | A2.1 relative binding (ratio of binding of test peptide relative to standard peptide) (A2.1 HLA molecules): 0.030
VLARTFTPV |  | A2 Bind. (A2.1 HLA molecules): 0.0440; A2.1 Binding (A2.1 HLA molecules): 0.044
RLTGGVFLV |  | A2.1 relative binding (ratio of binding of test peptide relative to standard peptide) (A2.1 HLA molecules): 0.14 and 0.16
LLALLSCLTI |  | A2 (A2.1 HLA molecules): 0.0340
SLDSWWTSV |  | A2.1 relative binding (ratio of binding of test peptide relative to standard peptide) (A2.1 HLA molecules): 0.10
LMPFVQWFV |  | A2.1 relative binding (ratio of binding of test peptide relative to standard peptide) (A2.1 HLA molecules): 0.83
YLLDLQEPV |  | A2.1 relative binding (ratio of binding of test peptide relative to standard peptide) (A2.1 HLA molecules): 0.22
CC[C@H](C)[C@H](NC(=O)[C@@H](NC(=O)[C@H](CCCCN)NC(=O)[C@H](CC(C)C)NC(=O)[C@@H](NC(=O)[C@@H](NC(=O)[C@@H](N)CCCNC(=N)N)[C@@H](C)O)[C@@H](C)O)[C@@H](C)O)C(=O)N[C@H](C(=O)N[C@H](C(=O)N[C@@H](CO)C(=O)N[C@@H](C)C(=O)N[C@@H](CCC(=O)O)C(=O)N[C@@H](CC(C)C)C(=O)N1CCC[C@H]1C(=O)N[C@@H](CCCCN)C(=O)O)C(C)C)[C@@H](C)O [Peptide 9014.0058] | 6.51 | 
CWMIDSEHRPRFREL [Peptide 9014.0221] | 6.06 | 
CWMIDSESRPRFREL [Peptide 9014.0225] | 6.34 | 
LLGRASFEV |  | A2 Bind. (A2.1 HLA molecules): 0.2200
ETELVEPLSPSGAMP [Peptide 9014.0155] | 6.93 | 
DMKLRLVASPETHLD [Peptide 9014.0123] | 7.55 | 
LMLLDYQGMV |  | A2.1 relative binding (ratio of binding of test peptide relative to standard peptide) (A2.1 HLA molecules): 0.0087
SLYNILSPFM |  | A2 Bind. (A2.1 HLA molecules): 0.0440
LMLQAGFFLV |  | A2.1 relative binding (ratio of binding of test peptide relative to standard peptide) (A2.1 HLA molecules): 0.63
SLYADSPSV |  | A2 Bind. (A2.1 HLA molecules): 0.3500
IISCTCPTV |  | A2 Bind. (A2.1 HLA molecules): 0.0190
ETEFVEPLTPSGAMP [Peptide 9014.0142] | 7.60 | 
LLPFVQWFV |  | A2.1 relative binding (ratio of binding of test peptide relative to standard peptide) (A2.1 HLA molecules): 0.63
LVPFVQWFA |  | A2.1 relative binding (ratio of binding of test peptide relative to standard peptide) (A2.1 HLA molecules): 0.0031

Compound | pIC50 (DR1 (DRB1*0101)) | other results
FLRVQQKAL |  | A2.1 Binding (A2.1 HLA molecules): 0.0002
SLQDIEITCVYCKTV |  | A2 Bind. (A2.1 HLA molecules): 0.0100
WLLRGTSFV |  | A2 Bind. (A2.1 HLA molecules): 0.1000
TLAA MHYSKL (TLAAMHYSKL) |  | A2.1 Binding (A2.1 HLA molecules): 0.0008
SMLSPFLPLV |  | A2.1 relative binding (ratio of binding of test peptide relative to standard peptide) (A2.1 HLA molecules): 0.97
SLRIKRELL |  | A2.1 Binding (A2.1 HLA molecules): 0
IIGAETFYV |  | A2 (A2.1 HLA molecules): 0.0260; A2 Bind. (A2.1 HLA molecules): 0.0260
ELQMMQDWV |  | A2.1 Binding (A2.1 HLA molecules): 0.0001
YLHTLWKAGV |  | A2.1 relative binding (ratio of binding of test peptide relative to standard peptide) (A2.1 HLA molecules): 0.15
GLWIRTPPV [listing 2 of 2 here] |  | A2 Bind. (A2.1 HLA molecules): 0.3600
LLSTTEWQV |  | A2 Bind. (A2.1 HLA molecules): 0.0480
QLWVTVYYGV |  | A2 Bind. (A2.1 HLA molecules): 0.0250
SLYNTVSTL [Peptide F136.04] |  | A*0201 (A2.1 HLA molecules): 0.0320
ETELVEPLIPSGAMP [Peptide 9014.0152] | 7.26 | 
CC(C)[C@H](NC(=O)[C@@H]1CCCN1C(=O)[C@H](CCCCN)NC(=O)[C@H](CO)NC(=O)[C@H](CC(N)=O)NC(=O)[C@H](CC(N)=O)NC(=O)[C@H](CO)NC(=O)[C@H](CO)NC(=O)[C@H](Cc1c[nH]c2ccccc12)NC(=O)[C@H](CO)NC(=O)[C@@H]1CCCN1C(=O)[C@@H](N)CCCCN)C(=O)N[C@@H](CCC(=O)O)C(=O)N[C@@H](CC(=O)O)C(=O)N[C@@H](CCCCN)C(=O)O [Peptide 9014.0042] | 7.54 | 
QNYIQNDTGFYTLHV [Peptide 9014.0077] | 6.34 | 
KHFGSLAFLPESFDGDPA [Peptide 9014.0232] | 6.20 | 
CC(C)[C@H](NC(=O)[C@H](CO)NC(=O)[C@@H]1CCCN1C(=O)[C@@H](N)CCCCN)C(=O)N[C@@H](CO)C(=O)N[C@@H](CO)C(=O)N[C@@H](CC(N)=O)C(=O)N[C@@H](CC(N)=O)C(=O)N[C@@H](CO)C(=O)N[C@@H](CCCCN)C(=O)N1CCC[C@H]1C(=O)N[C@H](C(=O)N[C@@H](CCC(=O)O)C(=O)N[C@@H](CC(=O)O)C(=O)N[C@@H](CCCCN)C(=O)O)C(C)C [Peptide 9014.0041] | 6.02 | 
GTDMKLRLIASPETH [Peptide 9014.0099] | 7.74 | 
KIFGSLAFLPESHDGDPA [9014,0255] | 6.09 | 
ETELVEPLLPSGAMP [Peptide 9014.0153] | 6.47 | 
KIFGSLLFLPESFDGDPA [Peptide 9014.0241] | 6.36 | 

Compound | pIC50 (DR1 (DRB1*0101)) | other results
NASLLIQNSIQNDTG [Peptide 9014.0015] | 7.00 | 
CC(C)[C@H](NC(=O)[C@@H]1CCCN1C(=O)[C@H](CCCCN)NC(=O)[C@H](CO)NC(=O)[C@H](CC(N)=O)NC(=O)[C@H](CC(N)=O)NC(=O)[C@H](CO)NC(=O)[C@H](CO)NC(=O)[C@H](Cc1ccc(O)cc1)NC(=O)[C@H](CO)NC(=O)[C@@H]1CCCN1C(=O)[C@@H](N)CCCCN)C(=O)N[C@@H](CCC(=O)O)C(=O)N[C@@H](CC(=O)O)C(=O)N[C@@H](CCCCN)C(=O)O [Peptide 9014.0043] | 7.41 | 
DMKLRLSASPETHLD [Peptide 9014.0121] | 6.08 | 
GTDMKLRLHASPETH [Peptide 9014.0098] | 6.08 | 
DMKLRLPAIPETHLD [Peptide 9014.0135] | 6.12 | 
ETEKVEPLTPSGAMP [Peptide 9014.0145] | 7.68 | 
730.12 (Ac-AAAKATAAAAAA; also: non-natural residue (10)) [Peptide 730.12] |  | pIC50 (DR1 (DRB1*0101); read-out: DRB1*0101): 5.30
ITDFGLARSLDIDET [Peptide 9014.0188] | 7.16 | 
GTDMKLRLNASPETH [Peptide 9014.0101] | 6.65 | 
ITDFGLARALDIDET [Peptide 9014.0183] | 7.60 | 
ETEAVEPLTPSGAMP [Peptide 9014.0141] | 7.29 | 
KFFGSLAFLPESFDGDPA [Peptide 9014.0231] | 6.65 | 
CWMIDSETRPRFREL [Peptide 9014.0226] | 6.43 | 
GTDMKLRLAASPETH [Peptide 9014.0096] | 7.66 | 
KWFGSLAFLPESFDGDPA [Peptide 9014.0236] | 6.35 | 
DMKLRLAASPETHLD [Peptide 9014.0115] | 7.33 | 
KYFGSLAFLPESFDGDPA [Peptide 9014.0237] | 6.02 | 
QNFIQNDTGFYTLHV [Peptide 9014.0071] | 6.17 | 
GTDMKLRLSASPETH [Peptide 9014.0102] | 7.19 | 
DMKLRLLASPETHLD [Peptide 9014.0119] | 7.92 | 
